Test results taken from US12616698B2, “Methods for reducing liver fat and for treating fatty liver disorders” (Corcept Therapeutics Incorporated, priority 2021, dated 2026).
Marks after values point to notes of the source that are not given here.

System: patients presumed to have NASH
Assay: Phase 2a study in patients with presumed NASH: liver fat by MRI-PDFF
Type: in vivo, human
Text: A Phase 2a, randomized, double-blind, placebo-controlled study (ClinicalTrials.gov Identifier: NCT03823703) was begun to assess the efficacy of two dose levels of miricorilant versus placebo in reducing liver fat in patients who were presumed to have non-alcoholic steatohepatitis (NASH), that presumption based on blood tests and noninvasive measures. Written informed consent was obtained before initiating any study-mandated procedures. The full study was planned to enroll approximately 120 patients, randomized 1:1:1 to receive daily 900 mg miricorilant:600 mg miricorilant: matching placebo.
Patients enrolled in the study were required to have consistent liver enzyme (ALT and AST) baseline measurements (established by two samples obtained at least 4 weeks and no more than six months apart), and a diagnosis of presumed NASH with fibrosis defined as meeting all of the following criteria: • a. Either: i) a historical liver biopsy within 1 year of Screening showing NASH, NAFLD Activity Score (NAS) greater than or equal to 4, and F1 to F3 fibrosis, or ii) an AST level greater than 17 U/L for women or AST level greater than 20 U/L for men AND a FibroScan liver stiffness measurement of greater than or equal to 8.5 kPa and a Controlled Attenuation Parameter (CAP) of greater than or equal to 300 dB/m in the 3 months prior to Screening or at Screening; • b. A MRI-PDFF with greater than or equal to 10% steatosis; and • c. The presence of two or more components of metabolic syndrome: type 2 diabetes treatment or fasting blood glucose greater than or equal to 126 mg/dL, BMI greater than or equal to 30 kg/m^2, hypertension treatment or blood pressure greater than or equal to 130/85, history of dyslipidemia, or waist circumference greater than or equal to 102 cm (40 in) in men and greater than or equal to 88 cm (35 in) in women.
Measures of the effectiveness of miricorilant versus placebo in reducing liver fat were assessed by magnetic resonance imaging (MRI). The change from baseline MRI measurements relative to MRI measurements taken following a course of daily miricorilant or placebo administration were assessed by magnetic resonance imaging-proton density fat fraction (MRI-PDFF). Additionally, effects of miricorilant may be assessed by measuring one or more of the following, either by comparing change from baseline after one or more days of miricorilant administration, or by comparing measurements in patients administered miricorilant versus patients administered placebo: change in liver fat assessed by MRI-PDFF; change in AST, ALT, and gamma-glutamyl transferase (GGT); change in propeptide of type III collagen (pro-C3); change in enhanced liver fibrosis (ELF) score and its components (hyaluronic acid, tissue inhibitor of metalloproteinases-1 [TIMP-1], type III procollagen [PIIINP]); change in ACTH, serum cortisol, and serum aldosterone (pharmacodynamic assessments); change in Homeostatic Model Assessment of Insulin Resistance (HOMA-IR); change in absolute body weight; and other measurements. […] For patients with diabetes, change in HbA1c and change in fasting blood glucose may be measured to assess the effects of miricorilant. Change in blood pressure may be measured in patients with high blood pressure to assess the effects of miricorilant. Pharmacokinetic (PK) parameters were estimated from steady state plasma concentrations of miricorilant.
Patients were randomized in a 1:1:1 ratio to 600 mg miricorilant, 900 mg miricorilant, or placebo. Study drug was administered once daily, orally with 8 oz (240 mL) of water, along with food. Patients were instructed to take a total of 6 tablets at approximately the same time each day. Those in the 600 miricorilant group took 4 miricorilant tablets and 2 placebo tablets. Those in the 900 miricorilant group took 6 miricorilant tablets. Those in the placebo group took 6 placebo tablets. […]

[1] = one patient, 600 mg per day, MRI-PDFF 26 days after cessation of study drug
[2] = patient 208-4020, 900 mg daily, 30 days on study drug, MRI 19 days after dose ended
[3] = patient 211-4002, 900 mg daily, 31 days on study drug, MRI 64 days after dose ended
[4] = patient 214-4007, 900 mg daily, 44 days on study drug, MRI 16 days after dose ended
[5] = patient 232-4016, 600 mg daily, 39 days on study drug, MRI 26 days after dose ended
[6] = patient 233-4018, 600 mg daily, 34 days on study drug, MRI 21 days after dose ended

O=c1[nH]c(=O)c(Cc2cccc(C(F)(F)F)c2)c([C@H]2CC[C@H](c3ccccc3)CC2)[nH]1 [miricorilant, (E)-6-(4-Phenylcyclohexyl)-5-(3-trifluoromethylbenzyl)-1H-pyrimidine-2,4-dione]
Liver fat levels (30 or 34 days of treatment, two of five patients administered miricorilant): normalized
Liver fat reductions (found in four patients (Table 3)): greater than 30%
Resolution of fatty liver (MRI-PDFF <5%) (one patient (233-4018, 600 mg) of the four with liver fat decreases): *complete resolution of fatty liver (MRI-PDFF <5%)
MRI PDFF value increase as compared to baseline [1]: 5
Relative increase in liver fat from baseline [1]: 27.9%
% Change in liver fat [2]: −65.3%
Change in MRI PDFF [2]: −11.5
MRI PDFF value (patient 208-4020, 900 mg daily, 30 days on study drug, MRI 19 days after dose ended, screening value 17.6): 6.1
Relative change from baseline in % liver fat (patient 208-4020, 900 mg, 30 days on treatment): −65.3%
Liver fat Follow-up (patient 208-4020, 900 mg, 30 days on treatment, baseline 17.6): 6.1%
% Change in liver fat [3]: −38.5%
Change in MRI PDFF [3]: −10.7
MRI PDFF value (patient 211-4002, 900 mg daily, 31 days on study drug, MRI 64 days after dose ended, screening value 27.8): 17.1
Relative change from baseline in % liver fat (patient 211-4002, 900 mg, 31 days on treatment): −38.5%
Liver fat Follow-up (patient 211-4002, 900 mg, 31 days on treatment, baseline 27.8): 17.1%
% Change in liver fat [4]: −47.0%
Change in MRI PDFF [4]: −13.3
MRI PDFF value (patient 214-4007, 900 mg daily, 44 days on study drug, MRI 16 days after dose ended, screening value 28.3): 15.0
Relative change from baseline in % liver fat (patient 214-4007, 900 mg, 44 days on treatment): −47.0%
Liver fat Follow-up (patient 214-4007, 900 mg, 44 days on treatment, baseline 28.3): 15.0%
% Change in liver fat [5]: +27.9%
Change in MRI PDFF [5]: 5.0
MRI PDFF value (patient 232-4016, 600 mg daily, 39 days on study drug, MRI 26 days after dose ended, screening value 17.9): 22.9
% Change in liver fat [6]: −73.8%
Change in MRI PDFF [6]: −9.3
MRI PDFF value (patient 233-4018, 600 mg daily, 34 days on study drug, MRI 21 days after dose ended, screening value 12.6): 3.3
Relative change from baseline in % liver fat (patient 233-4018, 600 mg, 34 days on treatment): −73.8%
Liver fat Follow-up (patient 233-4018, 600 mg, 34 days on treatment, baseline 12.6): 3.3* %
Mean liver fat content after treatment (FIG. 3C) (patient with the greatest reduction, 600 mg daily, baseline 12.6%): 3.3%
